Measurements as given in EP1688137A1, “SPM 927 for add-on therapy of schizophrenia” (SCHWARZ PHARMA AG, priority 2005, dated 2006).

Test system: C57BL/6J mice
Assay: prepulse inhibition (PPI) of the acoustic startle reflex, animal model for schizophrenia
Assay type: in vivo
Conditions: 30 min prior to testing, n=12
Method: Some anti-epileptic drugs have proven pre-clinical and/or clinical efficacy as add-on therapy for schizophrenia. SPM 927 was tested in a simple animal model with predictive validity for schizophrenia (i.e. prepulse inhibition (PPI) of the acoustic startle reflex). SPM 927 was tested alone and in combination with the atypical antipsychotic drug clozapine.
The acoustic startle is an unconditioned reflex response to an external auditory stimulation. PPI refers to the reduction in the startle response caused by the presentation of a low-intensity auditory stimulus prior to the startle stimulus. The PPI paradigm is the choice for the study of schizophrenia and antipsychotic action due to the similarities between the results from human and rodent studies. Antipsychotic drugs, such as clozapine, result in a dose-dependent increase in PPI in mice. Thus, an increase of PPI in normal mice may be indicative of antipsychotic efficacy.
C57BL/6J mice obtained from the Jackson Laboratory, Bar Harbor, Maine were received at the age of 6 weeks and were assigned unique identification numbers (tail marked). Animals were housed 4 per cage in polycarbonate cages with filter tops and acclimated for 7 days. All animals were examined, handled, and weighed prior to initiation of the study to assure adequate health and suitability and to minimize non-specific stress associated with manipulation.
During the course of the study, 12/12 light/dark cycles and a room temperature of 20 to 23°C were maintained with a relative humidity maintained around 50%. Chow and water were provided ad libitum for the duration of the study. Each mouse was randomly assigned across the treatment groups and balanced by cage numbers. The test was performed during the animal's light cycle phase. Twelve animals were used in each treatment group.
SPM 927 was dissolved in Saline (0.9% NaCl in sterile H2O). Clozapine was dissolved in 1 % Tween 80 in sterile H2O at a final pH of 6.0. All compounds were administered intraperitoneal (ip) (volume injection: 10 ml/kg). SPM 927 was administered at doses of 1, 10 and 30 mg/kg and Clozapine at a dose of 3 mg/kg. Doses are expressed as mg of salt. Control mice were administered saline (vehicle 1, VEH 1) or 1% Tween 80 (vehicle 2, VEH 2) at a pH of 6.0. The drug treatments were balanced across days and the animals only used once. All tests were conducted blind. All compounds were administered 30 mins prior to testing.
Animals were placed in the PPI chambers (Med Associates) for a 5 min session of white noise (70 dB) habituation. After the acclimation period the test session was automatically started. The session started with an habituation block of 6 presentations of the startle stimulus alone, followed by 10 PPI blocks of 6 different types of trials. Trial types are: null (no stimuli), startle (120 dB), startle plus prepulse (4, 8 and 12 dB over background noise i.e. 74, 78 or 82 dB) and prepulse alone (82 dB). Trial types were presented at random within each block. Each trial started with a 50 ms null period during which baseline movements are recorded. There was a subsequent 20 ms period during which prepulse stimuli were presented and responses to the prepulse measured. After further 100 ms the startle stimuli were presented for 40 ms and responses recorded for 100 ms from startle onset. Responses were sampled every ms. The inter-trial interval was variable with an average of 15 s (range from 10 to 20 s). In startle alone trials the basic auditory startle is measured and in prepulse plus startle trials the amount of inhibition of the normal startle is determined and expressed as a percentage of the basic startle response (from startle alone trials), excluding the startle response of the first habituation block. Eight animals were tested at one time.
Twelve animals were tested in each group. […]

| Structure (SMILES) | Mean PPI (VEH 1 / clozapine 3 mg/kg ip, PPI expressed as percentage of basic startle response) | Mean PPI (SPM 927 3 mg/kg ip / VEH 2 (alone)) | Mean PPI (SPM 927 3 mg/kg ip in combination with clozapine 3 mg/kg ip) | Mean PPI (SPM 927 10 mg/kg ip / VEH 2 (alone)) | Mean PPI (SPM 927 10 mg/kg ip in combination with clozapine 3 mg/kg ip) | Mean PPI (SPM 927 30 mg/kg ip / VEH 2 (alone)) | Mean PPI (SPM 927 30 mg/kg ip in combination with clozapine 3 mg/kg ip) |
| --- | --- | --- | --- | --- | --- | --- | --- |
| CN1CCN(C2=Nc3cc(Cl)ccc3Nc3ccccc32)CC1 [CLOZ, clozapine, reference compound] | 45±2 |  |  |  |  |  |  |
| COC[C@@H](NC(C)=O)C(=O)NCc1ccccc1 [SPM 927, (R)-2-acetamide-N-benzyl-3-methoxypropionamide] |  | 29±3 | 43±2 | 34±3 | 45±2 | 27±2 | 57±5 |
